The source of these data is PubChem BioAssay AID651630 (Sanford-Burnham Center for Chemical Genomics, 2012).

Each structure is given as a SMILES string. Active and inactive are the calls of the source.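 The calls were made as follows: active = lipid-stain IC50 at or below a set limit, with nuclear-stain toxicity IC50 at least five times higher; inactive = the rest.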

One assay has as its system TAG. Briefly: triacylglycerol accumulation inhibitor potency, dose response, cell-based, panel, Nile Red and DAPI fluorescence, H9c2 (AID 651630).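 Also: cells exposed to compound overnight before fixation and staining.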 As to conditions: H9c2 cells, Nile Red TAG fluorescence, oleic acid.
The next assay relates to DAPI. Described as above. As to conditions: H9c2 cells, DAPI nuclear fluorescence (cytotoxicity counter-readout), oleic acid.

With `COc1cc(OC)cc(C(=O)N2CC(=O)Nc3ccccc32)c1`, the IC50 (commonly the point on the concentration scale where inhibition reaches its midpoint) with TAG (mean of runs) is > 25 µM (inactive); in the assay on TAG (run 1), above 25 µM; in the assay on TAG (run 2) it was above 25 µM. Besides, the IC50 cytotoxicity (DAPI nuclear signal decrease) in the assay with DAPI (mean of runs) is > 25 µM (inactive); in the assay with DAPI (run 1) it was above 25 µM; in the assay on DAPI (run 2) it was above 25 µM.

With `O=C(Nc1ccccc1N1CCCCC1)c1ncoc1-c1ccc(F)cc1`, the IC50 was > 25 µM (inactive) in the assay on TAG (mean of runs), above 25 µM in the assay with TAG (run 1) and above 25 µM with TAG (run 2). Besides, the results for the IC50 cytotoxicity (DAPI nuclear signal decrease) with DAPI (mean of runs), with DAPI (run 1) and with DAPI (run 2) were > 25 µM (inactive), above 25 µM and above 25 µM, respectively.

Take `Nc1c(C(=O)NCc2ccccc2)sc2nc(N3CCOCC3)c3c(c12)CCCC3`: the IC50 was > 25 µM (inactive) in the assay on TAG (mean of runs), above 25 µM with TAG (run 1) and above 25 µM in the assay with TAG (run 2). Moreover, the IC50 cytotoxicity (DAPI nuclear signal decrease) in the assay with DAPI (mean of runs) is > 25 µM (inactive); with DAPI (run 1), above 25 µM; with DAPI (run 2), above 25 µM.

As for `Cc1ccc(S(=O)(=O)NC2=C(N3CCN(c4ccccc4F)CC3)C(=O)c3ccccc3C2=O)cc1`, the figures for the IC50 in the assay on TAG (mean of runs), in the assay with TAG (run 1) and in the assay on TAG (run 2) were 8.82 µM, 8.52 µM and 9.11 µM, respectively. Further, the IC50 cytotoxicity (DAPI nuclear signal decrease) was > 25 µM (inactive) with DAPI (mean of runs), above 25 µM with DAPI (run 1) and above 25 µM in the assay with DAPI (run 2).

In the case of `O=C(CSc1nc(Nc2ccccc2)nc(N2CCOCC2)n1)N1CCCC1`, the IC50 with TAG (mean of runs) was 12.2 µM; with TAG (run 1), 11.7 µM; in the assay with TAG (run 2), 12.7 µM. In addition, the values for the IC50 cytotoxicity (DAPI nuclear signal decrease) in the assay on DAPI (run 1) and with DAPI (run 2) were 22.1 µM and above 25 µM, respectively.

Take `O=c1cc(N2CCN(c3cccc(Cl)c3)CC2)[nH]c(=O)n1C1CCCCC1`: the IC50 in the assay on TAG (mean of runs) was 3.47 µM; in the assay on TAG (run 1), 5.5 µM; in the assay with TAG (run 2) it was 1.44 µM. Further, the IC50 cytotoxicity (DAPI nuclear signal decrease) in the assay on DAPI (run 1) was 18.2 µM; in the assay on DAPI (run 2), above 25 µM.

On to `N#C/C(=C\c1cc([N+](=O)[O-])c(N2CCCCC2)cc1N1CCCCC1)c1nn(-c2ccccc2)c(N)c1C#N`, for which the IC50 with TAG (mean of runs) is > 25 µM (inactive); with TAG (run 1) it was above 25 µM; with TAG (run 2) it was above 25 µM. Also, the IC50 cytotoxicity (DAPI nuclear signal decrease) with DAPI (mean of runs) is > 25 µM (inactive); with DAPI (run 1), above 25 µM; in the assay on DAPI (run 2), above 25 µM.

Take `CCC[C@@H](CN[C@@H](CNC)[C@H](C)CC)NCC1CCC(C(C)(C)C)CC1` (stereo partly specified): the IC50 is > 25 µM (inactive) in the assay on TAG (mean of runs), above 25 µM in the assay with TAG (run 1) and above 25 µM in the assay with TAG (run 2). For the same molecule, the values for the IC50 cytotoxicity (DAPI nuclear signal decrease) in the assay on DAPI (run 1) and in the assay with DAPI (run 2) were above 25 µM and 24 µM, respectively.

`O=c1cc(-c2ccccc2)[nH]c2ccccc12`: the IC50 in the assay on TAG (mean of runs) is 3.61 µM; with TAG (run 1) it was 2.45 µM; in the assay with TAG (run 2), 4.77 µM. The values for the IC50 cytotoxicity (DAPI nuclear signal decrease) in the assay with DAPI (run 1) and in the assay with DAPI (run 2) were 20.5 µM and above 25 µM, respectively.

`O=C(Nc1cccc(Cl)c1)c1nc[nH]c1C(=O)NCCCNC(=O)c1[nH]cnc1C(=O)Nc1cccc(Cl)c1`: the values for the IC50 with TAG (run 1) and in the assay with TAG (run 2) were 9.63 µM and above 25 µM, respectively. Moreover, the IC50 cytotoxicity (DAPI nuclear signal decrease) was > 25 µM (inactive) in the assay with DAPI (mean of runs), above 25 µM with DAPI (run 1) and above 25 µM in the assay with DAPI (run 2).

For `Cc1ccc(NC(=O)CSc2nc3ccc(Nc4nc(N5CCOCC5)nc(N5CCOCC5)n4)cc3s2)cc1`, the figures for the IC50 with TAG (mean of runs), with TAG (run 1) and with TAG (run 2) were 3.8 µM, 4.85 µM and 2.76 µM, respectively. For the same molecule, the IC50 cytotoxicity (DAPI nuclear signal decrease) in the assay with DAPI (run 1) and in the assay on DAPI (run 2) was above 25 µM in each case.

On to `CCOC(=O)[C@H]1[C@H]2COc3ccc(Br)cc3[C@@H]2N2C(=O)c3cc(Br)ccc3NC(=O)[C@@]12C`, for which the figures for the IC50 in the assay on TAG (mean of runs), with TAG (run 1) and with TAG (run 2) were > 25 µM (inactive), above 25 µM and above 25 µM, respectively. The IC50 cytotoxicity (DAPI nuclear signal decrease) in the assay with DAPI (mean of runs) is > 25 µM (inactive); with DAPI (run 1), above 25 µM; with DAPI (run 2), above 25 µM.

Take `CCCCNC(=O)C(=O)Nc1ccc2c(c1)N(S(=O)(=O)c1cccs1)CCC2`: the half-inhibitory concentration (IC50) with TAG (run 1) was above 25 µM; in the assay on TAG (run 2), 9.53 µM. The IC50 cytotoxicity (DAPI nuclear signal decrease) is > 25 µM (inactive) in the assay on DAPI (mean of runs), above 25 µM in the assay on DAPI (run 1) and above 25 µM in the assay with DAPI (run 2).

As to `Cc1noc(C)c1-c1ccc2ncnc(NCC3CCCCN3C)c2c1` (stereo unspecified), the values for the IC50 in the assay with TAG (mean of runs), in the assay on TAG (run 1) and in the assay with TAG (run 2) were > 25 µM (inactive), above 25 µM and above 25 µM, respectively. Besides, the IC50 cytotoxicity (DAPI nuclear signal decrease) in the assay with DAPI (mean of runs) is > 25 µM (inactive); with DAPI (run 1) it was above 25 µM; in the assay on DAPI (run 2) it was above 25 µM.

With `COC(=O)Nc1nc2ccc(Sc3ccccc3)cc2[nH]1`, the results for the IC50 in the assay with TAG (mean of runs), in the assay on TAG (run 1) and in the assay with TAG (run 2) were > 25 µM (inactive), above 25 µM and above 25 µM, respectively. The IC50 cytotoxicity (DAPI nuclear signal decrease) with DAPI (mean of runs) was > 25 µM (inactive); in the assay on DAPI (run 1), above 25 µM; in the assay with DAPI (run 2), above 25 µM.

For the molecule `O=[N+]([O-])c1cc(S(=O)(=O)Nc2cccc(Cl)c2)ccc1N/N=C/c1ccc(N2CCOCC2)cc1`, the IC50 was 13.6 µM in the assay on TAG (mean of runs), 12.5 µM with TAG (run 1) and 14.7 µM with TAG (run 2). Also, the IC50 cytotoxicity (DAPI nuclear signal decrease) is > 25 µM (inactive) with DAPI (mean of runs), above 25 µM in the assay with DAPI (run 1) and above 25 µM in the assay on DAPI (run 2).

In the case of `CCOc1ccc(CCNC(=O)CN2CCN(Cc3ccccc3C)C2=O)cc1OCC`, the IC50 was 2.19 µM in the assay on TAG (mean of runs), 1.85 µM in the assay on TAG (run 1) and 2.54 µM with TAG (run 2). Further, the IC50 cytotoxicity (DAPI nuclear signal decrease) with DAPI (run 1) and in the assay with DAPI (run 2) was above 25 µM throughout.

Consider `Cc1cccc(NC(=O)C(C)Sc2nc3ccccc3c(=O)n2CCCN2CCOCC2)c1` (stereo unspecified), for which the IC50 with TAG (mean of runs) is 20.5 µM (inactive); with TAG (run 1), 20.6 µM; in the assay on TAG (run 2), 20.5 µM. Moreover, the IC50 cytotoxicity (DAPI nuclear signal decrease) in the assay with DAPI (mean of runs) was > 25 µM (inactive); with DAPI (run 1) it was above 25 µM; in the assay on DAPI (run 2), above 25 µM.

On to `CCOc1ccc(C(=O)NC(=S)Nc2cccc(S(=O)(=O)NC3=NCCC3)c2)cc1`, for which the IC50 is > 25 µM (inactive) in the assay on TAG (mean of runs), above 25 µM in the assay on TAG (run 1) and above 25 µM with TAG (run 2). Further, the IC50 cytotoxicity (DAPI nuclear signal decrease) is > 25 µM (inactive) with DAPI (mean of runs), above 25 µM in the assay with DAPI (run 1) and above 25 µM with DAPI (run 2).

As for `COc1cc(C2C(C#N)=C(N)Oc3cc4c(cc32)OCO4)cc(OC)c1OC` (stereo unspecified), the IC50 is above 25 µM in the assay with TAG (run 1) and 3.52 µM in the assay on TAG (run 2). Further, the values for the IC50 cytotoxicity (DAPI nuclear signal decrease) in the assay with DAPI (mean of runs), in the assay with DAPI (run 1) and in the assay on DAPI (run 2) were > 25 µM (inactive), above 25 µM and above 25 µM, respectively.

Take `Cc1ccc(CC2(OCCN(C)C)CCC(C(C)(C)C)CC2)cc1` (stereo unspecified): the IC50 in the assay with TAG (mean of runs) is > 25 µM (inactive); in the assay with TAG (run 1), above 25 µM; with TAG (run 2), above 25 µM. The IC50 cytotoxicity (DAPI nuclear signal decrease) with DAPI (mean of runs) is 23.5 µM (inactive); with DAPI (run 1), 23.2 µM; with DAPI (run 2), 23.8 µM.

For the molecule `CCc1nn2c(N3CCOCC3)cc(C)nc2c1-c1ccc(F)cc1`, the IC50 in the assay on TAG (run 1) was above 25 µM; in the assay with TAG (run 2) it was below 0.78 µM. In addition, the results for the IC50 cytotoxicity (DAPI nuclear signal decrease) in the assay on DAPI (mean of runs), in the assay on DAPI (run 1) and with DAPI (run 2) were > 25 µM (inactive), above 25 µM and above 25 µM, respectively.

As for `Cc1ccc(C(=O)Nc2cc(C)c(OCC(=O)N3CCOCC3)c(C)c2)cc1`, the IC50 was > 25 µM (inactive) with TAG (mean of runs), above 25 µM in the assay on TAG (run 1) and above 25 µM in the assay on TAG (run 2). Further, the IC50 cytotoxicity (DAPI nuclear signal decrease) with DAPI (mean of runs) was > 25 µM (inactive); in the assay with DAPI (run 1) it was above 25 µM; with DAPI (run 2), above 25 µM.

Consider `COc1ccc(-c2cc(NC=O)c3ncc(-c4ccc(OC)c(OC)c4)n3c2)cc1`, for which the IC50 in the assay with TAG (mean of runs) is 13.2 µM; with TAG (run 1), 12.5 µM; in the assay on TAG (run 2) it was 13.9 µM. Besides, the IC50 cytotoxicity (DAPI nuclear signal decrease) in the assay with DAPI (run 1) is above 25 µM; in the assay with DAPI (run 2), 5.58 µM.

As to `Cc1cc(NC(=O)c2cc(-c3ccncc3)nc3c(C)cccc23)no1`, the results for the IC50 with TAG (mean of runs), with TAG (run 1) and in the assay with TAG (run 2) were 11.5 µM, 10.5 µM and 12.5 µM, respectively. The IC50 cytotoxicity (DAPI nuclear signal decrease) is > 25 µM (inactive) in the assay with DAPI (mean of runs), above 25 µM with DAPI (run 1) and above 25 µM in the assay with DAPI (run 2).

`CCOC(=O)C1=C(C)N(C[C@@H]2CC[C@@H](Cc3ccc(-c4ccccc4)cc3)O2)C(=O)NC1c1cccc2ccccc12` (stereo partly specified): the concentration for half-maximal inhibition (IC50) was 13.6 µM in the assay with TAG (mean of runs), 14 µM in the assay with TAG (run 1) and 13.2 µM in the assay on TAG (run 2). Besides, the IC50 cytotoxicity (DAPI nuclear signal decrease) in the assay on DAPI (mean of runs) was > 25 µM (inactive); in the assay on DAPI (run 1), above 25 µM; with DAPI (run 2), above 25 µM.

Take `COc1cc(NC(=O)c2csc(N)n2)cc(C(=O)Nc2cccc(C(F)(F)F)c2)c1`: the IC50 is 13.5 µM in the assay on TAG (mean of runs), 10.7 µM in the assay with TAG (run 1) and 16.4 µM in the assay on TAG (run 2). The IC50 cytotoxicity (DAPI nuclear signal decrease) in the assay on DAPI (mean of runs) is > 25 µM (inactive); in the assay with DAPI (run 1), above 25 µM; with DAPI (run 2), above 25 µM.
